Measurements as given in ChEMBL document CHEMBL5291721, “A preclinical secondary pharmacology resource illuminates target-adverse drug reaction associations of marketed drugs” (Nat Commun, 2023).

Assays:
Glucocorticoid receptor = target: T1, Glucocorticoid receptor (Homo sapiens, UniProt P04150); format: functional
T1 sequence (P04150 whole entry): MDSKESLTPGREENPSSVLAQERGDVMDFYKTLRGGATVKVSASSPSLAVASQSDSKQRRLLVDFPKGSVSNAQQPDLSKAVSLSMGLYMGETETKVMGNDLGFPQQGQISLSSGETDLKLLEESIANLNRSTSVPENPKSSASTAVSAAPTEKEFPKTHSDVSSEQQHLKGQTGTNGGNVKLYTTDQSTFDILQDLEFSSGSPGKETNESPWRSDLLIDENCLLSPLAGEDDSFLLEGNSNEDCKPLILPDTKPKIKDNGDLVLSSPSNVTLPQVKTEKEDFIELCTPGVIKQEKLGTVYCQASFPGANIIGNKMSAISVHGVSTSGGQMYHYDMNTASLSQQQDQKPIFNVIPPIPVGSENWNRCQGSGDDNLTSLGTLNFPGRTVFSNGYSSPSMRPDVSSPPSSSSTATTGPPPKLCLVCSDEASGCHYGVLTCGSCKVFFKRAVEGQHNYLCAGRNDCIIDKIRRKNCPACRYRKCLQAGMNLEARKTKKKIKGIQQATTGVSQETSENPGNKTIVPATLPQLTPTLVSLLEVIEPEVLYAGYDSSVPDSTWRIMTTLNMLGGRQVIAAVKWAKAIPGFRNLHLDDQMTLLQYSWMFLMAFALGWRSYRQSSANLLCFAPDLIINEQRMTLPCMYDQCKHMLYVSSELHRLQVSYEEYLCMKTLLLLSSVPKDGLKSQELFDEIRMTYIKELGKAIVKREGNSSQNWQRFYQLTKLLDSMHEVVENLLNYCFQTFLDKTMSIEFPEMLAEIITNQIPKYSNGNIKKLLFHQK

Progesterone receptor = target: T2, Progesterone receptor (Homo sapiens, UniProt P06401)
T2 sequence (P06401 whole entry): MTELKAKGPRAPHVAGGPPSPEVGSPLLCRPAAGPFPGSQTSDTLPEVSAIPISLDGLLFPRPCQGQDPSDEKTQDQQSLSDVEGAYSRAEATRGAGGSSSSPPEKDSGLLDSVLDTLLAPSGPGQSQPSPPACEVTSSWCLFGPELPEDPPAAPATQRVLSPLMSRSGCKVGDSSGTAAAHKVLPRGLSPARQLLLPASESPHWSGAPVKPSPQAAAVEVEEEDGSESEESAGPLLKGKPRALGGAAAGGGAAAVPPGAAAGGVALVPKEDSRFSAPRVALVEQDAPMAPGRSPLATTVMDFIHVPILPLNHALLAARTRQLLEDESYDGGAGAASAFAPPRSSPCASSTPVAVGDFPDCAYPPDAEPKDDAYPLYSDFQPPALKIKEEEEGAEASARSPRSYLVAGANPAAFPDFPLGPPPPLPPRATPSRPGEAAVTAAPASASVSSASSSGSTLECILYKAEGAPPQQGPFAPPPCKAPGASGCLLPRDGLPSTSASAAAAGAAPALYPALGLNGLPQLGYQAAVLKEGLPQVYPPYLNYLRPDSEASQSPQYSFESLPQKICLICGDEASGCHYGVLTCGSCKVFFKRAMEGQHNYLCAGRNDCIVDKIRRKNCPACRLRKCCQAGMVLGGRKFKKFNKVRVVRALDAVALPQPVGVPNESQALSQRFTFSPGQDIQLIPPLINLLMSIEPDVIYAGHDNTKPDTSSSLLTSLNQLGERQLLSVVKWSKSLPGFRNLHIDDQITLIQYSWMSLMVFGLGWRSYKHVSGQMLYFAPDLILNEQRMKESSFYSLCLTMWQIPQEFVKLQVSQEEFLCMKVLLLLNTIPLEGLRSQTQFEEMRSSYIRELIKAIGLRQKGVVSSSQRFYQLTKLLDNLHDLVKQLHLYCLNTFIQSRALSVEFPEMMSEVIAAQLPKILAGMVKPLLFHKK

[1] = target: T3, Muscarinic acetylcholine receptor M2 (Homo sapiens, UniProt P08172)
T3 sequence (P08172 whole entry): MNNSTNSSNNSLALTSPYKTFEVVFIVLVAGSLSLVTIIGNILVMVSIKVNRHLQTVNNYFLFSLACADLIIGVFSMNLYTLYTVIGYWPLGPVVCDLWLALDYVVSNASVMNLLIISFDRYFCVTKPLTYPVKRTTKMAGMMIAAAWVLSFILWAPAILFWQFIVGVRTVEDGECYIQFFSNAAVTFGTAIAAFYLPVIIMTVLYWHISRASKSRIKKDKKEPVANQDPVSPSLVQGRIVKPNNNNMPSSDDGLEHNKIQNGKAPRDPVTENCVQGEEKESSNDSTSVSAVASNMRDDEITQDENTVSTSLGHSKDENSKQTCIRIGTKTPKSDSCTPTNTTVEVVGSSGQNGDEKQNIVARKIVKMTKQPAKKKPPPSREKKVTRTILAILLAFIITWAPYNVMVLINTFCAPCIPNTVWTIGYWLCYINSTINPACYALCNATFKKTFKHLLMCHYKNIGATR

B1 bradykinin receptor = target: T4, B1 bradykinin receptor (Homo sapiens, UniProt P46663)
T4 sequence (P46663 whole entry): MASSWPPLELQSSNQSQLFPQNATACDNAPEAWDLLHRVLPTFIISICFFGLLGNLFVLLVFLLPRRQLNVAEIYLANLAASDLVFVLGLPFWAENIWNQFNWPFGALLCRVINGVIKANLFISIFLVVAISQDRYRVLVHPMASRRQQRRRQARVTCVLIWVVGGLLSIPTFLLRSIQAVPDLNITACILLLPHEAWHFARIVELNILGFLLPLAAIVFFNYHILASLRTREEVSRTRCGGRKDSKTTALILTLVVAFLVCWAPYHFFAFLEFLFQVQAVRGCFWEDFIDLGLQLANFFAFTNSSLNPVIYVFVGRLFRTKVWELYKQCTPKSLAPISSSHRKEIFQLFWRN

[2] = target: T5, Endothelin receptor type B (Homo sapiens, UniProt P24530)
T5 sequence (P24530 whole entry): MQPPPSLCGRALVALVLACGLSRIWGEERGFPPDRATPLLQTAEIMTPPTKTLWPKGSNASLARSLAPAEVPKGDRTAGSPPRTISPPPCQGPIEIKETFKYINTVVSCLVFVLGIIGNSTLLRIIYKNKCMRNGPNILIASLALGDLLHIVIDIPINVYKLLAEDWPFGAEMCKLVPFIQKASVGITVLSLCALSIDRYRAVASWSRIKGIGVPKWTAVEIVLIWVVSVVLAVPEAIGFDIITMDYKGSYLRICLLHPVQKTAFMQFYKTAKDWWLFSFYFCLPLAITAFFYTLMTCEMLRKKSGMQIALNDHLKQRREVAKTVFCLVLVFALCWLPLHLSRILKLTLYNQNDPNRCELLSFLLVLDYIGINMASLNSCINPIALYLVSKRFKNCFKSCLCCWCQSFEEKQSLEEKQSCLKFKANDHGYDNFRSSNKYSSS

[3] = target: 5-hydroxytryptamine receptor 2A (Homo sapiens, UniProt P28223); format: functional, cell-based
Also: assay procedure not described here.

Sequence of 5-hydroxytryptamine receptor 2A (P28223 whole entry): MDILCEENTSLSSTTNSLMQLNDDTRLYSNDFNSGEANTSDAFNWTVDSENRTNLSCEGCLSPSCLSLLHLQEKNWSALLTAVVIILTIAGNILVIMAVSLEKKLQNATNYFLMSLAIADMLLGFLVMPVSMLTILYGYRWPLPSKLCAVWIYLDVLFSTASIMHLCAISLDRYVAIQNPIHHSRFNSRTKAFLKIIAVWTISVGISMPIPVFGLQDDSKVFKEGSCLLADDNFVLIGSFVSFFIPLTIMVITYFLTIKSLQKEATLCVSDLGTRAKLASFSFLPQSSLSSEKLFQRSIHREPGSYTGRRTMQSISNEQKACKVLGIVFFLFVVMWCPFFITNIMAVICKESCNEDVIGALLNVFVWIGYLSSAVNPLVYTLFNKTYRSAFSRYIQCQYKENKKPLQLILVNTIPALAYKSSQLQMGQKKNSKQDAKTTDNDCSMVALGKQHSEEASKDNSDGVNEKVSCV

| SMILES | AC50 (Glucocorticoid receptor) [µM] | AC50 (Progesterone receptor) [µM] | AC50 [1] [µM] | AC50 (B1 bradykinin receptor) [µM] | AC50 [2] [µM] | AC50 [3] [µM] |
| --- | --- | --- | --- | --- | --- | --- |
| CCCN(CCc1cccs1)[C@H]1CCc2c(O)cccc2C1 [ROTIGOTINE] | > 30 |  |  |  |  |  |
| CCc1oc2ccccc2c1C(=O)c1cc(Br)c(O)c(Br)c1 [BENZBROMARONE] | > 30 | > 30 | 0.0373 |  |  |  |
| Clc1cccc(Cl)c1N=C1NCCN1 [CLONIDINE] |  | > 30 | > 10 | > 30 | > 30 |  |
| CC(C)N(CCCCOCC(=O)NS(C)(=O)=O)c1cnc(-c2ccccc2)c(-c2ccccc2)n1 [SELEXIPAG] |  |  |  |  |  | 16 |
| [H]/N=C(\N/C(=N/[H])NCCCCCCNC(=N)NC(=N)Nc1ccc(Cl)cc1)Nc1ccc(Cl)cc1 [CHLORHEXIDINE] |  |  |  |  |  | 1.83 |
| CC(C)C[C@H](CN)CC(=O)O [PREGABALIN] | > 30 | 20.2 |  | > 30 | > 30 | > 30 |
| CC1(C)O[C@@H]2[C@@H](CO[C@@]3(COS(N)(=O)=O)OC(C)(C)O[C@@H]23)O1 [TOPIRAMATE] |  | > 30 | > 10 | > 30 | > 30 |  |
| CNCCC=C1c2ccccc2CCc2ccccc21 [NORTRIPTYLINE] |  |  | 0.632 |  |  |  |
| Cc1cnc(NC(=O)C2=C(O)c3ccccc3S(=O)(=O)N2C)s1 [MELOXICAM] |  | > 30 | > 10 | > 30 | > 30 |  |
| CN(C)c1cc(CNCC(C)(C)C)c(O)c2c1C[C@H]1C[C@H]3[C@H](N(C)C)C(O)=C(C(N)=O)C(=O)[C@@]3(O)C(O)=C1C2=O [OMADACYCLINE] |  |  | 4.25 |  |  | > 30 |
| O=C1CN2Cc3c(ccc(Cl)c3Cl)N=C2N1 [ANAGRELIDE] |  | > 30 |  |  |  | > 30 |
| CC[C@H]1OC(=O)[C@H](C)[C@@H](O[C@H]2C[C@@](C)(OC)[C@@H](O)[C@H](C)O2)[C@H](C)[C@@H](O[C@@H]2O[C@H](C)C[C@H](N(C)C)[C@H]2O)[C@](C)(O)C[C@@H](C)/C(=N\OCOCCOC)[C@H](C)[C@@H](O)[C@]1(C)O [ROXITHROMYCIN] | > 30 |  |  |  |  |  |
| CNC(=O)c1cc(Oc2ccc(NC(=O)Nc3ccc(Cl)c(C(F)(F)F)c3)c(F)c2)ccn1 [REGORAFENIB] | > 30 |  |  |  |  | > 30 |
| C=C(C)[C@@H]1CCC(C)=C[C@H]1c1c(O)cc(CCCCC)cc1O [CANNABIDIOL] | > 30 |  |  |  |  | 4.7 |
| Cc1cc(CC(=O)O)n(C)c1C(=O)c1ccc(Cl)cc1 [ZOMEPIRAC] |  |  |  |  |  | > 30 |
| CNCC[C@H](Oc1cccc2ccccc12)c1cccs1 [DULOXETINE] |  | > 30 |  |  |  |  |
| CN1CCN(CCCN2c3ccccc3Sc3ccc(S(=O)(=O)N(C)C)cc32)CC1 [THIOPROPERAZINE] |  |  |  |  |  | 5.8 |

| SMILES | AC50 (Glucocorticoid receptor) [µM] | AC50 (Progesterone receptor) [µM] | AC50 [1] [µM] | AC50 (B1 bradykinin receptor) [µM] | AC50 [2] [µM] | AC50 [3] [µM] |
| --- | --- | --- | --- | --- | --- | --- |
| CC(=N)N1CC[C@H](SC2=C(C(=O)O)N3C(=O)[C@H]([C@@H](C)O)[C@H]3C2)C1 | > 300 |  |  |  |  | > 300 |
| CCC(=O)O[C@@H](O[P@](=O)(CCCCc1ccccc1)CC(=O)N1C[C@H](C2CCCCC2)C[C@H]1C(=O)O)C(C)C [FOSINOPRIL] |  |  |  |  |  | > 30 |
| CC(=O)Oc1ccccc1C(=O)Nc1ncc([N+](=O)[O-])s1 [NITAZOXANIDE] |  |  |  |  |  | 15 |
| CCOc1cc(CC(=O)N[C@@H](CC(C)C)c2ccccc2N2CCCCC2)ccc1C(=O)O [REPAGLINIDE] | > 30 |  |  |  |  | 9.4 |
| CN1C[C@H](C(=O)N[C@]2(C)O[C@@]3(O)[C@@H]4CCCN4C(=O)[C@H](Cc4ccccc4)N3C2=O)C[C@@H]2c3cccc4[nH]cc(c34)C[C@H]21 [DIHYDROERGOTAMINE] |  | > 30 | > 10 | > 30 | > 30 |  |
| Cn1c(=O)c2[nH]cnc2n(C)c1=O [THEOPHYLLINE] |  | > 30 | > 10 | > 30 | > 30 |  |
| O=C1NC(=O)C(c2ccccc2)(c2ccccc2)N1 [PHENYTOIN] | > 30 | > 30 |  | > 30 | > 30 |  |
| CC1(C)S[C@@H]2[C@H](NC(=O)[C@H](N)c3ccc(O)cc3)C(=O)N2[C@H]1C(=O)O [AMOXICILLIN] |  | > 30 | > 10 | > 30 | > 30 |  |
| CO/N=C(\C(=O)N[C@@H]1C(=O)N2C(C(=O)O)=C(COC(N)=O)CS[C@H]12)c1ccco1 [CEFUROXIME] |  |  |  |  |  | > 30 |
| COc1ccnc(C[S+]([O-])c2nc3ccc(OC(F)F)cc3[nH]2)c1OC (stereo not drawn) [PANTOPRAZOLE] |  | > 30 | > 10 | > 30 | > 30 |  |
| CNC[C@H](O)c1cccc(O)c1 [PHENYLEPHRINE] |  | > 30 | > 10 | > 30 | > 30 | > 30 |
| O=C(Nc1c(Cl)cncc1Cl)c1ccc(OC(F)F)c(OCC2CC2)c1 [ROFLUMILAST] |  |  |  |  |  | > 30 |
| C#Cc1cccc(Nc2ncnc3cc(OCCOC)c(OCCOC)cc23)c1 [ERLOTINIB] | > 30 |  |  |  |  |  |
| CC1(C)O[C@@H]2C[C@H]3[C@@H]4C[C@H](F)C5=CC(=O)C=C[C@]5(C)[C@H]4[C@@H](O)C[C@]3(C)[C@]2(C(=O)CO)O1 [FLUNISOLIDE] | 0.021 |  |  |  |  |  |
| C[C@H]1Oc2cc(cnc2N)-c2c(nn(C)c2C#N)CN(C)C(=O)c2ccc(F)cc21 [LORLATINIB] | > 30 |  |  |  |  | > 30 |
| CC(=O)/N=c1/sc(S(N)(=O)=O)nn1C [METHAZOLAMIDE] |  |  |  |  |  | > 10 |
| CCCCNc1ccc(C(=O)OCCN(C)C)cc1 [TETRACAINE] |  | > 30 | > 10 | > 30 | > 30 |  |
